This passage reports TGI and GI50 results from PubChem BioAssay (NCI).

Structures are written as SMILES.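 In this assay, cells in 96-well plates receive the compound at five concentrations for 48 hours. Endpoints are linearly interpolated between the surrounding concentrations. Abbreviation: GI50, concentration required for 50% inhibition of growth. TGI denotes the concentration required for complete inhibition of growth.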

Test systems include U251 CNS; CCRF-CEM leukemia; SF-268 CNS; UACC-62 melanoma; K-562 leukemia; KM12 colon; RXF 393 renal; ACHN renal; SF-539 CNS; NCI-H23 lung.
What all share (assay): NCI anticancer screen, dose series, 48 h

Consider `O=C(O)c1cc(N=Cc2ccccc2O)cc(C(=O)O)c1`, for which the TGI in the assay on U251 CNS, in the assay on CCRF-CEM leukemia, in the assay with SF-268 CNS, with UACC-62 melanoma, in the assay on K-562 leukemia and with KM12 colon was > 100 µM each time. In addition, the TGI in the assay on RXF 393 renal, in the assay on ACHN renal, in the assay on SF-539 CNS and in the assay on NCI-H23 lung was > 100 µM each time.

For the compound `NS(=O)(=O)c1cccc(N=Cc2c(O)[nH]c3ccccc23)c1`, the GI50 with U251 CNS is > 25 µM; in the assay with CCRF-CEM leukemia, > 25 µM; with SF-268 CNS, > 25 µM; with UACC-62 melanoma, > 25 µM; in the assay on K-562 leukemia, > 25 µM; in the assay with KM12 colon, 8.04 µM. In addition, the GI50 in the assay with RXF 393 renal was > 25 µM; in the assay with ACHN renal, > 23.1 µM; with SF-539 CNS, > 25 µM; in the assay on NCI-H23 lung, > 25 µM. For the same compound, the TGI in the assay with U251 CNS, in the assay on CCRF-CEM leukemia, in the assay with SF-268 CNS, in the assay with UACC-62 melanoma, in the assay with K-562 leukemia and in the assay on KM12 colon was > 25 µM each time. Moreover, the TGI in the assay on RXF 393 renal, in the assay on ACHN renal, in the assay with SF-539 CNS and in the assay on NCI-H23 lung was > 25 µM in each case.

Take `O=C(Nc1ccc(Cl)cc1)c1cc(-c2ccc(Cl)cc2)c2sc(=O)[nH]c2n1`: the GI50 in the assay on U251 CNS is 1.88 µM; in the assay on CCRF-CEM leukemia, 2.5 µM; in the assay on SF-268 CNS, 2.56 µM; in the assay with UACC-62 melanoma, 1.04 µM; in the assay on K-562 leukemia it was 1.27 µM; with KM12 colon, 1.58 µM. Further, the GI50 in the assay on RXF 393 renal is 2.77 µM; in the assay on ACHN renal, 2.27 µM; with SF-539 CNS, 2.43 µM; with NCI-H23 lung it was 1.24 µM. Moreover, the TGI in the assay with U251 CNS was 11.8 µM; in the assay with CCRF-CEM leukemia, 40.3 µM; with SF-268 CNS it was 22.3 µM; in the assay with UACC-62 melanoma, 4.91 µM; in the assay on K-562 leukemia, > 100 µM; in the assay with KM12 colon, 10.3 µM. The TGI in the assay on RXF 393 renal came out at 7.42 µM; in the assay with ACHN renal, 8.89 µM; in the assay with SF-539 CNS, 11.6 µM; in the assay on NCI-H23 lung it was 6.85 µM.

With `CCOC(=O)C1SC(=Nc2ccc(Cl)c(Cl)c2)N=C1C` (stereo not drawn), the TGI in the assay on U251 CNS is > 100 µM; with CCRF-CEM leukemia, 31.3 µM; in the assay on SF-268 CNS it was > 100 µM; in the assay on UACC-62 melanoma it was > 100 µM; in the assay with K-562 leukemia, 32.5 µM; with KM12 colon, > 100 µM. For the same compound, the TGI in the assay on RXF 393 renal was 52.3 µM; with ACHN renal, > 100 µM; with SF-539 CNS, > 100 µM; in the assay with NCI-H23 lung, > 100 µM.

Turning to `COc1ccc(C(=O)c2cc3c(OC)c(OC)c(OC)cc3[nH]2)cc1`, the GI50 in the assay on U251 CNS is 5.2 µM; in the assay with CCRF-CEM leukemia, 5.27 µM; in the assay on SF-268 CNS it was 68.1 µM; in the assay with UACC-62 melanoma, 3.39 µM; in the assay with K-562 leukemia, 1.1 µM; in the assay with KM12 colon it was 2.36 µM. Moreover, the GI50 is 10.2 µM in the assay with RXF 393 renal, 12.8 µM in the assay with ACHN renal, 4.76 µM in the assay on SF-539 CNS and 6.25 µM in the assay with NCI-H23 lung. The TGI in the assay with U251 CNS, in the assay with CCRF-CEM leukemia, with SF-268 CNS, in the assay on UACC-62 melanoma, with K-562 leukemia and with KM12 colon was > 100 µM throughout. In addition, the TGI in the assay on RXF 393 renal was 95.7 µM; in the assay with ACHN renal, > 100 µM; with SF-539 CNS it was > 100 µM; with NCI-H23 lung, > 100 µM.

In the case of `COc1cccc2c1C(=O)c1c(O)c3c(c(O)c1C2=O)C[C@@](O)(C(=O)CO)C[C@@H]3OC1C[C@H](N)[C@H](O)[C@H](C)O1` (stereo partly drawn), the GI50 with U251 CNS is 0.025 µM; in the assay with CCRF-CEM leukemia, 0.0186 µM; in the assay with SF-268 CNS it was 0.0616 µM; in the assay with UACC-62 melanoma, 0.0346 µM; with K-562 leukemia, 0.089 µM; with KM12 colon it was 0.135 µM. The GI50 in the assay with RXF 393 renal is 0.0751 µM; in the assay on ACHN renal, 0.0257 µM; in the assay with SF-539 CNS, 0.0387 µM; in the assay with NCI-H23 lung, 0.0484 µM. In addition, the TGI came to 2.25 µM with U251 CNS; 0.428 µM in the assay with CCRF-CEM leukemia; 0.982 µM in the assay with SF-268 CNS; 0.117 µM in the assay on UACC-62 melanoma; 3.18 µM with K-562 leukemia; 6.27 µM in the assay on KM12 colon. Besides, the TGI was determined as 0.25 µM with RXF 393 renal, 0.242 µM in the assay on ACHN renal, 0.528 µM in the assay with SF-539 CNS and 0.234 µM in the assay with NCI-H23 lung.

As to `CCN(CCCl)CCCNc1c2ccccc2nc2ccc(OC)cc12`, the GI50 in the assay on U251 CNS is 387 µM; with CCRF-CEM leukemia, 67.6 µM; with SF-268 CNS, 254 µM; with UACC-62 melanoma, 255 µM; in the assay on K-562 leukemia it was 116 µM; in the assay on KM12 colon, 268 µM. The values for the GI50 in the assay on RXF 393 renal, with SF-539 CNS and in the assay with NCI-H23 lung were 601 µM, 421 µM and 382 µM, respectively. In the assay with ACHN renal, the TGI is 1.34 µM.

Turning to `c1ccc2c(c1)[nH]c1cnc3c4cccnc4[nH]c3c12`, the TGI is 54.2 µM in the assay with CCRF-CEM leukemia; 36.1 µM in the assay with SF-268 CNS; 31.1 µM with UACC-62 melanoma; 46.4 µM in the assay with K-562 leukemia; 34.7 µM with RXF 393 renal; 23.4 µM with ACHN renal. Further, the TGI with SF-539 CNS was 44.7 µM; in the assay on NCI-H23 lung it was 62.1 µM.

Regarding `Cc1ccc2c(O)c(O)cc(NC(C)CCCN)c2n1` (stereo not drawn), the GI50 in the assay on U251 CNS was 3.67 µM; with CCRF-CEM leukemia it was 3.73 µM; in the assay with SF-268 CNS, 16.7 µM; in the assay with UACC-62 melanoma it was 27.3 µM; in the assay with K-562 leukemia it was 12.3 µM; in the assay on KM12 colon it was 25 µM. In addition, the GI50 is > 69.1 µM in the assay on RXF 393 renal, > 100 µM in the assay on ACHN renal, 3.83 µM in the assay on SF-539 CNS and 3.3 µM in the assay with NCI-H23 lung. Besides, the TGI with U251 CNS was 14.8 µM; with CCRF-CEM leukemia, 16.8 µM; in the assay on SF-268 CNS it was 66.2 µM; in the assay on UACC-62 melanoma it was > 66.8 µM; in the assay on K-562 leukemia it was 60.4 µM; in the assay on KM12 colon it was 98.9 µM. Further, the TGI in the assay on RXF 393 renal is > 100 µM; with ACHN renal it was > 100 µM; in the assay on SF-539 CNS it was 17.2 µM; in the assay on NCI-H23 lung, 19.3 µM.
